Laboratory results published in publication PMC7412561, “Conjugates of Chitosan and Calcium Alginate with Oligoproline and Oligohydroxyproline Derivatives for Potential Use in Regenerative Medicine” (Materials, 2020).
Non-standard residues stand in square brackets, D forms with d. Hyp = O=C(O)[C@@H]1C[C@@H](O)CN1

These substances were tested on endothelial cell line EA.hy 926 (assay: MTT test (cell metabolic activity / cytotoxicity)). Conditions: EA.h 926 cells incubated with peptide for 1 day and for 7 days; concentration range 10 μM to 10 mM; compared with Control− (medium only); five replicates, average.
Format: cell-based
Procedure: The endothelial cell line EA.hy 926 (ATCC, Manassas, VA, USA) was used. The MTT test was performed using endothelial cells of the EA.hy 926 line. The extracts (2 mg/mL) were incubated in DMEM (Corning) for 48 h at 37 °C. Cells were seeded into a 96-well plate with 1 × 10^4 cells per well and grown under standard conditions (37 °C, 5% CO2 in humid air). The next day, the medium was replaced with extracts. After 24 h of treatment, the culture medium was removed and replaced with the MTT solution (1 mg/mL, Sigma Aldrich, Poznan, Poland) and incubated for 2 h in an incubator. The MTT solution was then decanted and 100 µL of isopropanol (Sigma Aldrich, Poznan, Poland) was added to each well. Absorbance was measured at 570 nm and 650 nm for the reference using a microplate reader (Victor X4 Perkin Elmer, PerkinElmer, Inc. Waltham, MA, USA). Cells cultured for 48 h in DMEM were used as a negative control. As a positive control were used cells incubated for 24 h, followed by the addition of DMSO, which were then cultured for another 24 h. Three samples of each type were tested and the results were presented as a percentage of the negative control with the standard deviation. Statistical significance was assessed using one-way ANOVA analysis of variance. Values for which the value **p < 0.001, ** p < 0.01, *p < 0.05 were considered statistically significant.
All the peptides were also assessed in terms of their cytotoxicity against the endothelial cell line EA.h 926. No cytotoxicity was observed (Figure 6) both for incubating cells in the presence of peptides 1–5 for 1 day (Figure 6a) and for 7 days (Figure 6b). Cells cultured in medium without the addition of any substances or harmful agents were used as the Control^− (K^−), while cells treated with DMSO on the second day of incubation were used as the Control^+ (K^+). The dimethyl sulfoxide (DMSO) was added to a final concentration of 5%. An MTT test was used to assess the cytotoxicity of peptides 1–5. […] The tests were performed in the concentration range of 10 μM and 10 mM.
Figure 6 Results of cell metabolic activity by using 3-(4,5-dimethylthiazol-2-yl)-2,5-diphenyltetrazolium bromide (MTT test) of the endothelial cell line EA.h 926 cultured in the presence of peptides 1–5, panel (a)—cells incubated in the presence of peptides for 1 day, panel (b)—cells incubated in the presence of peptides for 7 days. Cytotoxicity tests were performed in five replicates. The presented results are average values. Statistical significance was assessed using one-way ANOVA analysis of variance. Values for which the value **p < 0.001, ** p < 0.01, *p < 0.05 were considered statistically significant (see Supplementary Materials, Figure S1).
In the final stage of the research, we studied the effects of covalently linked conjugates of peptides 2‒5 with chitosan and alginate (Figure 10) on the endothelial cell line EA.hy 926. Experiments were performed for incubation of cells for 1 day (Figure 10a) and 7 days (Figure 10b) to check the effect of alginate and chitosan conjugates with peptides 2‒5 both in the short and long term, which is important from the point of view of the usefulness of materials used in regenerative medicine. As the Control^‒ (K^‒) were again used cells cultured in the medium without the addition of any substances or any harmful factors, while as the Control^+ (K^+) were used cell cultures killed by adding DMSO on the second day of incubation. DMSO was added to give a 5% final concentration in the culture medium. Unmodified chitosan and calcium alginate were also studied. […] Cell viability relative to the […] was reduced by more than 75%. The adverse effect of calcium alginate on the endothelial cell line EA.hy 926 may result from the exchange of Ca^2+ ions from the polysaccharide matrix for monovalent Na^+ and/or K^+ ions, causing the release of large amounts of Ca^2+ ions into the culture medium. This in turn may adversely affect the endothelial cells. […]

Row | Substance | cytotoxic effect of peptides (MTT test)
1 | H-(Hyp)6-OH [Peptide 4] | No cytotoxic effect
2 | H-(Hyp)9-OH [Peptide 5] | No cytotoxic effect
3 | H-(Pro)6-OH [Peptide 2] | No cytotoxic effect
4 | H-(Pro)9-OH [Peptide 3] | No cytotoxic effect
5 | H-G[Hyp]PA[Hyp]P-OH (SMILES C[C@H](NC(=O)[C@@H]1CCCN1C(=O)[C@@H]1C[C@@H](O)CN1C(=O)CN)C(=O)N1C[C@H](O)C[C@H]1C(=O)N1CCC[C@H]1C(=O)O) [Peptide 1, model collagen fragment, reference compound] | No cytotoxic effect

Same assay, conditions: EA.h 926 cells; 10 mM peptide

Row | Substance | cytotoxicity at the highest tested concentration (MTT)
6 | H-(Pro)9-OH [Peptide 3] | comparable toxicity to that at 100 μM
